{"source": "paper PMC4008314", "about": "(Clinical cancer research : an official journal of the …, 2012)", "origin": "cited, not measured here", "conditions": "once daily, with sorafenib and bevacizumab; cited from earlier work", "data": [{"compound": "O=P1(N(CCCl)CCCl)NCCCO1", "note": "(stereo not shown) [cyclophosphamide]", "values": [{"measurement": "recommended phase II dose", "result": 50, "unit": "mg/m^2"}]}]}
